Laboratory results from patent US8143259B2, “Cold menthol receptor antagonists” (Janssen Pharmaceutica, NV, priority 2008, dated 2012).
pIC50: −log10 of the molar value. Values joined by “and” are separate entries in the source; they are usually repeats but may differ in a detail not shown here. Equal entries are not always repeated.

How the values were obtained:
[1] = target: T1, canine TRPM8 (Canis lupus familiaris, UniProt Q1A7N1); experiment: In Vitro Canine TRPM8 Functional Assay (Ca2+ fluorescence, icilin activation); type: cell-based
T1 construct: expressed in transfected cells
Summary of the method: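 HEK293 cells stably expressing canine TRPM8, loaded with Calcium 3 dye; compounds added 5 min before icilin at a concentration giving ~80% maximal response. Peak icilin-evoked Ca2+ fluorescence, basal-subtracted and normalised to maximal response, fitted by sigmoidal nonlinear regression; quadruplicate wells.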

[2] = test system: icilin-induced “wet-dog” shakes; experiment: Inhibition of Icilin-Induced “Wet-Dog” Shakes in Rats; type: in vivo; details: percent inhibition of wet-dog shakes; rat; 30 mg/kg p.o., 10% solutol, 2 h pre-icilin
Method: (§1) Similar shaking or jumping behavior was also evident in mice, rabbits, cats, dogs and monkeys. In humans, icilin produced a sensation of coolness on contact with mucous membranes, cold prickling when 0.1 mg was dropped on the tongue and coldness in the mouth, pharynx and chest lasting 30-60 minutes when 5-10 mg was ingested orally (Wei E T, Seid D A, J Pharm Pharmacol. 1983, 35, 110). The inhibition or reversal of icilin-induced shaking behaviors in rodents provides evidence for the utility of TRPM8 antagonists of the formula (I) in treating or preventing a disease, syndrome, disorder or condition in a subject in which the disease, syndrome, disorder or condition is affected by the modulation of TRPM8 receptors.
Male Sprague Dawley rats ([…], Charles River Labs, n=6-9/treatment) were used to evaluate the ability of selected compounds of the formula (I) to block icilin-induced “wet-dog” shakes (WDS). […] Icilin was administered in PEG-400 or 10% solutol/H2O, at 1.0 or 3.0 mg/kg, i.p. and spontaneous “wet-dog” shakes were counted 10-20 minutes post-icilin. Results are presented as a percent inhibition of shakes, which was calculated as [1−(test compound WDS count/vehicle WDS count)]×100.

[3] = test system: icilin-induced “wet-dog” shakes; experiment: Reversal of Icilin-Induced Behaviors in Rats; type: in vivo; details: percent inhibition (reversal) of wet-dog shakes; rat; 30 mg/kg P.O., 20′ post-icilin; 30 mg/kg
Method: as §1
Male Sprague Dawley rats (225-450 g, Charles River Labs, n=4-6/treatment) were used to evaluate the ability of selected compounds of the formula (I) to reverse icilin-induced “wet-dog” shakes. Icilin was administered in PEG-400 or 10% solutol/H2O, at 1.0 or 3.0 mg/kg, i.p. and spontaneous “wet-dog” shakes (WDS) were counted 10-20 minutes post-icilin. […] Results are presented as a percent inhibition of shakes, which was calculated as [1−(test compound WDS count/vehicle WDS count)]×100.

T1 sequence (Q1A7N1 1-1104): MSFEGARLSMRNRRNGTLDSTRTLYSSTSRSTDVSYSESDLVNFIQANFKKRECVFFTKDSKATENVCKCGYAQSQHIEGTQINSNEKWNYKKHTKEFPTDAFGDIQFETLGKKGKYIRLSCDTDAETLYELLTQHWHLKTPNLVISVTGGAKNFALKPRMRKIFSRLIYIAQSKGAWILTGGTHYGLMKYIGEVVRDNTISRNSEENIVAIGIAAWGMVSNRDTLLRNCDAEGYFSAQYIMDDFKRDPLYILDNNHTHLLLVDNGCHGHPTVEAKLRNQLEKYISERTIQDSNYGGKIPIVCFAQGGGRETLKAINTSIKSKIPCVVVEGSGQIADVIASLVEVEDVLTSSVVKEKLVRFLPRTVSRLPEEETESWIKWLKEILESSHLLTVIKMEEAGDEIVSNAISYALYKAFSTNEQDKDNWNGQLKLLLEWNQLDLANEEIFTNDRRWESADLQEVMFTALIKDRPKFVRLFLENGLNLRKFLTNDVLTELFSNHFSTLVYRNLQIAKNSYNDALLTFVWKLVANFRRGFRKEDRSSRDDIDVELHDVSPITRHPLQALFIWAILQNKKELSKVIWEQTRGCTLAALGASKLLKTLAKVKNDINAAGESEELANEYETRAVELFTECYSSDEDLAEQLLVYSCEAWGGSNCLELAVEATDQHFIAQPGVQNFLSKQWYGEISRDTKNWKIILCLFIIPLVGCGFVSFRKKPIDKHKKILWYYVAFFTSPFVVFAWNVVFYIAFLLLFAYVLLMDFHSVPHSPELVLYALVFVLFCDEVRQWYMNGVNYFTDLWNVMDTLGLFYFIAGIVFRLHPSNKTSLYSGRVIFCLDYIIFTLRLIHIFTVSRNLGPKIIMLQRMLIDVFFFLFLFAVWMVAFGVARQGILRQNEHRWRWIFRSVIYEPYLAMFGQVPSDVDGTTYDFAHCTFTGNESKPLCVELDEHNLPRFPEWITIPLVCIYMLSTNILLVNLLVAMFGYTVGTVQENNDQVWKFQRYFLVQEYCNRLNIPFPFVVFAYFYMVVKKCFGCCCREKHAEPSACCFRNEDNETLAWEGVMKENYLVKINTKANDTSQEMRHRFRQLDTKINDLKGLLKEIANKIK

% Inh @ 0.2 μM ([1]; 0.2 μM compound, canine TRPM8 HEK293, icilin, 0.2 µM): 103%
% Inh @ 0.5 μM ([1]; 0.5 μM compound, canine TRPM8 HEK293, icilin, 0.5 µM): 100.72%
pIC50 ([1]; HEK293 cells stably expressing canine TRPM8, icilin activation, Ca2+ fluorescence): 8.14 and 8.30
SMILES: O=C(C(Nc1ccccc1F)c1ccc(C(F)(F)F)cc1)N1CCCC1c1ccccc1F (single isomer, unassigned) [Cpd 151]
% Inh [2]: 100%
% Inh [3]: 99% ± 1%
